Laboratory results: ChEMBL document CHEMBL3046624, “Synthesis, single crystal X-ray studies and antimicrobial activities of novel Indole barbiturates” (Med Chem Res, 2012)
Activity calls are given as the source filed them.

How the values were obtained:
Assay type in all cases: functional, organism-based
[1] = test system: Proteus vulgaris; assay: Growth inhibition of Proteus vulgaris at 200 ug/ml by cup-plate method
[2] = test system: Candida albicans; assay: Growth inhibition of Candida albicans at 200 ug/ml by cup-plate method
[3] = test system: Bacillus subtilis; assay: Growth inhibition of Bacillus subtilis at 300 ug/ml by cup plate method
[4] = test system: Bacillus subtilis; assay: Growth inhibition of Bacillus subtilis at 100 ug/ml by cup plate method
[5] = test system: Staphylococcus aureus; assay: Growth inhibition of Staphylococcus aureus at 300 ug/ml by cup-plate method
[6] = test system: Saccharomyces cerevisiae; assay: Growth inhibition of Saccharomyces cerevisiae at 200 ug/ml by cup-plate method
[7] = test system: Proteus vulgaris; assay: Growth inhibition of Proteus vulgaris at 300 ug/ml by cup-plate method
[8] = test system: Escherichia coli; assay: Growth inhibition of Escherichia coli at 100 ug/ml by cup-plate method
[9] = test system: Saccharomyces cerevisiae; assay: Growth inhibition of Saccharomyces cerevisiae at 100 ug/ml by cup-plate method
[10] = test system: Candida albicans; assay: Growth inhibition of Candida albicans at 100 ug/ml by cup-plate method
[11] = test system: Escherichia coli; assay: Growth inhibition of Escherichia coli at 300 ug/ml by cup-plate method
[12] = test system: Pseudomonas aeruginosa; assay: Growth inhibition of Pseudomonas aeruginosa at 200 ug/ml by cup-plate method
[13] = test system: Bacillus subtilis; assay: Growth inhibition of Bacillus subtilis at 200 ug/ml by cup plate method
[14] = test system: Proteus vulgaris; assay: Growth inhibition of Proteus vulgaris at 100 ug/ml by cup-plate method
[15] = test system: Escherichia coli; assay: Growth inhibition of Escherichia coli at 200 ug/ml by cup-plate method
[16] = test system: Staphylococcus aureus; assay: Growth inhibition of Staphylococcus aureus at 100 ug/ml by cup-plate method
[17] = test system: Saccharomyces cerevisiae; assay: Growth inhibition of Saccharomyces cerevisiae at 300 ug/ml by cup-plate method
[18] = test system: Staphylococcus aureus; assay: Growth inhibition of Staphylococcus aureus at 200 ug/ml by cup-plate method
[19] = test system: Candida albicans; assay: Growth inhibition of Candida albicans at 300 ug/ml by cup-plate method
[20] = test system: Pseudomonas aeruginosa; assay: Growth inhibition of Pseudomonas aeruginosa at 100 ug/ml by cup-plate method
[21] = test system: Pseudomonas aeruginosa; assay: Growth inhibition of Pseudomonas aeruginosa at 300 ug/ml by cup-plate method

Measured: growth inhibition (GI)

O=C1NC(=O)C(=Cc2c(-c3ccccc3)n(CC(=O)c3ccc(Br)cc3)c3ccccc23)C(=O)N1
active: all assays above

O=C1NC(=O)C(=Cc2c(-c3ccccc3)n(CC(=O)c3ccccc3)c3ccccc23)C(=O)N1
active: [6] | [7] | [9] | [12] | [14] | [17] | [20] | [21]
inactive: all other assays above

O=C1NC(=O)C(=Cc2c(-c3ccccc3)n(CC(=O)c3ccc(Cl)cc3)c3ccccc23)C(=O)N1
active: all assays above

O=C1NC(=O)C(=Cc2c(-c3ccccc3)n(CC(=O)c3ccc(-c4ccccc4)cc3)c3ccccc23)C(=O)N1
inactive: [2] | [10] | [12] | [14] | [19] | [20]
active: all other assays above

CC1(C)S[C@@H]2[C@H](NC(=O)[C@H](N)c3ccccc3)C(=O)N2[C@H]1C(=O)O
inactive: [2] | [10] | [19]
not listed: [6] | [9] | [17]
active: all other assays above

CC(=O)N1CCN(c2ccc(OCC3COC(Cn4ccnc4)(c4ccc(Cl)cc4Cl)O3)cc2)CC1 (configuration not stated)
active: [2] | [6] | [9] | [10] | [17] | [19]

CCCCn1c(-c2ccccc2)c(C=C2C(=O)NC(=O)NC2=O)c2ccccc21
inactive: [6] | [9] | [12] | [17] | [20] | [21]
active: all other assays above

CCn1c(-c2ccccc2)c(C=C2C(=O)NC(=O)NC2=O)c2ccccc21
active: [2] | [3] | [6] | [9] | [10] | [12] | [17] | [19] | [20] | [21]
inactive: all other assays above

COc1ccc(C(=O)Cn2c(-c3ccccc3)c(C=C3C(=O)NC(=O)NC3=O)c3ccccc32)cc1
inactive: [4] | [5] | [6] | [8] | [9] | [11] | [13] | [15] | [16] | [18]
active: all other assays above

C=CCn1c(-c2ccccc2)c(C=C2C(=O)NC(=O)NC2=O)c2ccccc21
active: all assays above
